Reference: PMC5988308, “Rhodanine derivatives as potent anti-HIV and anti-HSV microbicides” (PLoS ONE, 2018)
Read-outs that look alike come from different tables or passages of the source.

Legend:
[1] = Cytotoxicity on TZM-bl cells (XTT test); assay type: cell-based; details: human, read-out: Citotoxicity (TZM-bl cells) CC50
Procedure: (§1) The human TZM-bl indicator cell line (obtained from the NIH AIDS reagents program, cat. Nr 8129 (www.aidsreagent.org) and maintained at 37°C and 5% CO2 in Dulbecco’s modified Eagle’s medium (DMEM) medium containing 10% fetal bovine serum, 50 μg/mL penicillin, and 50 μg/mL streptomycin. The HIV-1 laboratory strains NL(AD8) (NIH AIDS reagents program, cat.nr 11346), NL4.3 (NIH AIDS reagents program, cat. Nr. 114) were titrated as previously reported. Briefly, serial 5-fold dilutions of each virus were made in quadruplicate wells in 96-well culture plates, in a total volume of 100 μL of growth medium (DMEM), for a total of 8 dilution steps. Freshly trypsinized cells (20,000 cells in 100 μL of growth medium containing 75 μg/mL DEAE-dextran) were added to each well, and the plates were incubated at 37°C in a humidified 5% CO2-95% air environment. After 48 h of incubation, the medium was removed and viral infection was quantified using a β-galactosidase (CPRG) assay (Roche). Twenty thousand TZM-bl cells/well were seeded in 96-well plates in complete DMEM supplemented with 30 μg/mL DEAE-dextran (Sigma-Aldrich). Three hundred times the 50% tissue culture infective dose (TCID50)/mL of each strain was pretreated for 1 h at 37°C with six serial dilutions ([…] to 3.2 nM) of each compound and then added to the cells, as previously described. Vehicle (0.1% dimethyl sulfoxide [DMSO])-treated cells served as a negative control. […] After 2 days, viral infection was quantified using a CPRG assay (Roche). The inhibitory curves were fitted by nonlinear regression, allowing for the calculation of the 50% inhibitory concentration (IC50) using the Prism software. To evaluate the cell toxicity of the compounds, the metabolic XTT [2,3-bis-(2-methoxy-4-nitro-5-sulfophenyl)-2H-tetrazolium-5-carboxanilide] test (Sigma-Aldrich) was performed according to the manufacturer’s instructions.

[2] = Vero cell viability (MTS assay); assay type: cell-based; details: African green monkey
Procedure: African green monkey fibroblastoid kidney cells (Vero, ATCC CCL-81) were grown as monolayers in Eagle's minimal essential medium (MEM) (Gibco/BRL, Gaithersburg, MD) supplemented with 10% heat inactivated fetal calf serum (FCS) and 1% antibiotic-antimycotic solution (Zell Shield, Minerva Biolabs GmbH, Berlin, Germany).
Cell viability was measured using the MTS [3-(4,5-dimethylthiazol-2-yl)-5-(3-carboxymethoxyphenyl)-2-(4-sulfophenyl)-2H-tetrazolium] assay. Cell cultures were seeded in 96-well plates were incubated with different concentrations of compounds in triplicate under the same experimental conditions described for the antiviral assays. Cell viability was determined using the CellTiter 96 Proliferation Assay Kit (Promega, Madison, WI, USA) according to the manufacturer's instructions. Absorbances were measured using a Microplate Reader (Model 680, BIORAD) at 490 nm. The effect on cell viability at different concentrations of the compound was expressed as a percentage, by comparing absorbances of treated cells with those of cells incubated with culture medium and equal volumes of vehicle.

[3] = Metabolic stability in human liver microsomes; assay type: in vitro ADME; details: HLM, 37°C, 1 h; percentage of compound not metabolized
Procedure: The incubation mixture (total volume of 500 μL) was constituted by the following components: HLM (0.2 mg/mL), a NADPH regenerating system (NADPH 0.2 mM, […] 1 mM, D-glucose-6-phosphate 4 mM, 4 unit/mL glucose-6-phosphate dehydrogenase and MgCl2 48 mM), 50 μM of each compound in DMSO and phosphate buffer (pH 7.4, 25 mM, up to a final volume of 500 μL). The mixture was incubated at 37°C for 1 h. The reaction was cooled down and quenched with acetonitrile (1.0 mL). After centrifugation (4000 rpm, 10 min), the supernatant was taken, dried under nitrogen flow, suspended in 100 μL of methanol and analyzed by UV/LC-MS to determine the percentage of compound that was not metabolized.

[4] = biological target: human serum albumin (HSA) (Homo sapiens, UniProt P02768); assay: Albumin binding fluorimetric assay, HSA; details: fluorescence quenching, 10 μM HSA
Procedure: The binding of each compounds to HSA (human serum albumin) and BSA (bovine serum albumin) were monitored by fluorescence spectroscopy in order to determine the dissociation constant (Kd). A quantitative analysis of the potential interaction was performed by fluorimetric analysis using 96 multiwell plates: in each well a fixed concentration of HSA or BSA (10μM in phosphate buffer 1 mM), was added with different amounts of tested compound (0.1μM to 500μM by stock solutions in DMSO). […] The obtained fluorescence quenching percentages were plotted against drug concentrations and the relative Kd values were obtained using GraphPad software (version 6.0).

[5] = system: HIV-1 AD8 (CCR5-tropic strain); assay: Antiviral activity on TZM-bl cells infected with HIV-1 AD8 (CPRG assay); assay type: cell-based; details: Human immunodeficiency virus 1, TZM-bl cells
Procedure: as §1

[6] = biological target: bovine serum albumin (BSA) (Bos taurus, UniProt P02769); assay: Albumin binding fluorimetric assay, BSA; details: fluorescence quenching, 10 μM BSA
Procedure: The binding of each compounds to HSA (human serum albumin) and BSA (bovine serum albumin) were monitored by fluorescence spectroscopy in order to determine the dissociation constant (Kd). A quantitative analysis of the potential interaction was performed by fluorimetric analysis using 96 multiwell plates: in each well a fixed concentration of HSA or BSA (10μM in phosphate buffer 1 mM), was added with different amounts of tested compound (0.1μM to 500μM by stock solutions in DMSO). Plates were gently shacked and after allowing 30 minutes at room temperature for equilibration, after excitation at 295nm, spectra were recorded from 300 to 400 nm with a Perkin Elmer EnVision Multilabel Reader 2014 spectrofluorimeter, spectra were acquired with EnVision Manager ver.1.13 software. The obtained fluorescence quenching percentages were plotted against drug concentrations and the relative Kd values were obtained using GraphPad software (version 6.0).

[7] = system: HIV-1 NL4.3 (CXCR4-tropic strain); assay: Antiviral activity on TZM-bl cells infected with HIV-1 NL4.3 (CPRG assay); assay type: cell-based; details: TZM-bl cells
Procedure: After 48 h of incubation, the medium was removed and viral infection was quantified using a β-galactosidase (CPRG) assay (Roche). Twenty thousand TZM-bl cells/well were seeded in 96-well plates in complete DMEM supplemented with 30 μg/mL DEAE-dextran (Sigma-Aldrich). […] Vehicle (0.1% dimethyl sulfoxide [DMSO])-treated cells served as a negative control. […] After 2 days, viral infection was quantified using a CPRG assay (Roche). […] To evaluate the cell toxicity of the compounds, the metabolic XTT [2,3-bis-(2-methoxy-4-nitro-5-sulfophenyl)-2H-tetrazolium-5-carboxanilide] test (Sigma-Aldrich) was performed according to the manufacturer’s instructions.

[8] = Vero cells, HSV-2 assay conditions, read-out: Citotoxicity (Vero cells) CC50
[9] = pre-incubation in complete medium containing fetal bovine serum (FBS), read-out: AD8 EC50 a
[10] = pre-incubation with virus without serum, read-out: AD8 EC50
[11] = Human immunodeficiency virus 1, NL43, TZM-bl, pre-incubation in complete medium containing fetal bovine serum (FBS), read-out: NL4-3 EC50 a
[12] = Human immunodeficiency virus 1, NL43, TZM-bl, pre-incubation with virus without serum, read-out: NL4-3 EC50

bovine serum albumin (BSA), sequence (P02769 25-607): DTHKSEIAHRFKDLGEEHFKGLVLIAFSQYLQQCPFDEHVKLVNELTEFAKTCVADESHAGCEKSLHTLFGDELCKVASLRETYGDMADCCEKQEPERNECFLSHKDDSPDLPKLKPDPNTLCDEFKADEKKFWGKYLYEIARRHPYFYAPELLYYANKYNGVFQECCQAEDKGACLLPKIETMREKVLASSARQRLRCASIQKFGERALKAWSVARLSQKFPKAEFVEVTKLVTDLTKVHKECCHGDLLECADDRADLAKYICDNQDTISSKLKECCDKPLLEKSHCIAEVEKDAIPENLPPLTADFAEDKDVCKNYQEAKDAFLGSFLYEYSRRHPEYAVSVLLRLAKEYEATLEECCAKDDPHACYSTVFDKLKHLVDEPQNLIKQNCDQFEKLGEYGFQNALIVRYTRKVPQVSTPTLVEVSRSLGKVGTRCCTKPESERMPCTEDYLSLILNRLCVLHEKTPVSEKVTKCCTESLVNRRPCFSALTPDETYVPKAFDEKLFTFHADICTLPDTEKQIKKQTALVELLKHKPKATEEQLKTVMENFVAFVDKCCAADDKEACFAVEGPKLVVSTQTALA
human serum albumin (HSA), sequence (P02768 25-609): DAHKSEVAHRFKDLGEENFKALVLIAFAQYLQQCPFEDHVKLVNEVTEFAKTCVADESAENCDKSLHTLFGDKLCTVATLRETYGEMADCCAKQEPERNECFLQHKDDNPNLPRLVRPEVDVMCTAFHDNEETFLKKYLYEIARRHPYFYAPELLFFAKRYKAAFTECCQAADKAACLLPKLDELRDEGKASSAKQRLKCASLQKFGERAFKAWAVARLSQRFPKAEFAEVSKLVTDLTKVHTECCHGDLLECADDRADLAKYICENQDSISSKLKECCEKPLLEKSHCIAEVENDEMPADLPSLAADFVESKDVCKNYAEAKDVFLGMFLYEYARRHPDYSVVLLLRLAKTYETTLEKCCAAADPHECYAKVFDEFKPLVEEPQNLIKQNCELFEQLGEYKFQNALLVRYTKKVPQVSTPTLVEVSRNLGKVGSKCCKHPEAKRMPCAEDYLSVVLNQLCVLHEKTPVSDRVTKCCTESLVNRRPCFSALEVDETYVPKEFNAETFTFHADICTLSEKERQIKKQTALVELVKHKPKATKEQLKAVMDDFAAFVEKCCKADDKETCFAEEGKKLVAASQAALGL

Compound	CC50 [1] [µM]	CC50 [2, 8] [µM]	Metabolic Stability [3] [%]	Kd [4] [nM]	EC50 [5, 9] [nM]	EC50 [5, 10] [nM]	Kd [6] [nM]	EC50 [7, 11] [nM]	EC50 [7, 12] [nM]	EC50 ([7]; Human immunodeficiency virus 1, TZM-bl, pre-incubation with FBS, read-out: EC50 against NL4.3 strain in presence of serum) [nM]	EC50 ([7]; pre-incubation with virus without serum, read-out: NL4-3 EC50) [nM]	CC50 ([2]; Vero cell CC50 (HSV-2 acyclovir resistant rows)) [µM]	CC50 ([2]; Vero cells, HSV-1 assay conditions, read-out: Vero cell CC50 (HSV-1)) [µM]
O=C(O)c1ccc(-c2ccc(/C=C3\SC(=S)N(Cc4ccc(F)cc4)C3=O)o2)cc1O [Compound 1]	> 20	224 ± 78.5	>90	630 ± 100	1395 ± 10	32.3 ± 3	680 ± 100	2951 ± 15	~50	3000	49.5 ± 2	–	–
O=C(O)c1ccc(-c2ccc(/C=C3\SC(=S)N(Cc4ccc(Cl)cc4)C3=O)o2)cc1O [Compound 2]	> 20	112 ± 11.6	>90	960 ± 100	650	6.9	630 ± 100	190 ± 9	4	–	–	112 ± 11.6	98 ± 23.1
O=C(O)c1ccc(-c2ccc(/C=C3\SC(=S)N(CCc4ccc(F)cc4)C3=O)o2)cc1O [Compound 9a, (Z)-4-(5-((3-(4-fluorophenethyl)-4-oxo-2-thioxothiazolidin-5-ylidene)methyl)furan-2-yl)-2-hydroxybenzoic acid]	2.2	> 300	>90	1510 ± 200	116 ± 24	7.5	1080 ± 200	204 ± 12	5.4	–	–	–	–
Cc1ccc(CCN2C(=O)/C(=C/c3ccc(-c4ccc(C(=O)O)c(O)c4)o3)SC2=S)cc1 [Compound 9b, (Z)-2-hydroxy-4-(5-((3-(4-methylphenethyl)-4-oxo-2-thioxothiazolidin-5-ylidene)methyl)furan-2-yl)benzoic acid]	> 20	–	>90	1570 ± 200	404 ± 20	46.7 ± 9	1550 ± 300	457 ± 5	23 ± 4	–	–	–	–
O=C(O)c1ccc(-c2ccc(/C=C3\SC(=S)N(CCCc4ccccc4)C3=O)o2)cc1O [Compound 9c, (Z)-2-hydroxy-4-(5-((4-oxo-3-(3-phenylpropyl)-2-thioxothiazolidin-5-ylidene)methyl)furan-2-yl)benzoic acid]	> 20	205 ± 30.1	>90	1190 ± 100	378 ± 15	27.5 ± 4	1050 ± 100	457 ± 11	15.3 ± 2	–	–	–	–
CCc1ccc(CCN2C(=O)/C(=C/c3ccc(-c4ccc(C(=O)O)c(O)c4)o3)SC2=S)cc1 [Compound 9d, (Z)-4-(5-((3-(4-ethylphenethyl)-4-oxo-2-thioxothiazolidin-5-ylidene)methyl)furan-2-yl)-2-hydroxybenzoic acid]	12.3	16.9 ± 4.31	>90	1090 ± 900	186 ± 9	36 ± 3	990 ± 900	228 ± 10	23.4 ± 3	–	–	–	–
O=C(O)c1ccc(-c2ccc(/C=C3\SC(=S)N(c4ccc(F)c(Cl)c4)C3=O)o2)cc1O [Compound 9e, (Z)-4-(5-((3-(3-chloro-4-fluorophenyl)-4-oxo-2-thioxothiazolidin-5-ylidene)methyl)furan-2-yl)-2-hydroxybenzoic acid]	> 20	> 100	>90	2190 ± 1000	400 ± 14	26 ± 6	1070 ± 900	420 ± 7	30 ± 1	–	–	–	–
O=C(O)c1ccc(-c2ccc(/C=C3\SC(=S)N(Cc4ccc(Cl)c(F)c4)C3=O)o2)cc1O [Compound 9f, (Z)-4-(5-((3-(4-chloro-3-fluorobenzyl)-4-oxo-2-thioxothiazolidin-5-ylidene)methyl)furan-2-yl)-2-hydroxybenzoic acid]	> 20	7.87 ± 2.98	>90	2230 ± 1200	560 ± 10	20 ± 4	1090 ± 900	570 ± 9	17 ± 2	–	–	–	–
